Values quoted from earlier work as cited in US20250049902A1, “Method of Developing a Peptide-Based Vaccine Conjugated with 1V209” (VERSITECH LIMITED, priority 2021, published 2025).

Assays:
[1] = tested on: antigen specific immune responses; conditions: small molecule simply mixed with antigens, ref [3]
TLR7 pathway = conditions: reported, ref [3]

Structure (SMILES): COCCOc1nc(N)c2[nH]c(=O)n(Cc3ccc(C(=O)O)cc3)c2n1 [1V209, 4-[[6-Amino-7,8-dihydro-2-(2-methoxyethoxy)-8-oxo-9H-purin-9-yl]methyl]-benzoic acid]
- induction of antigen specific immune responses [1]: can hardly induce antigen specific immune responses
- TLR7 pathway stimulation (TLR7 pathway): can stimulate the TLR7 pathway as an agonist
